Entries after “also recorded” stand apart in the source; their conditions may differ. Where a name gives a salt, the structure may show the parent alone.
What was measured:
HCC1937 cells [1] = experiment: Monolayer growth inhibition, crystal violet assay; format: cell-based; conditions: Homo sapiens; HCC1937 (TNBC, BRCA Mutant), 5 days, single dose on day 1
Source text: (§1) In all instances a single dose was given on day 1 of the experiment. […] Complete (100%) growth suppression was achievable with several of the compounds in multiple different cell lines.

T47D cells [2] = experiment: Monolayer growth inhibition, crystal violet assay; format: cell-based; conditions: Homo sapiens; T47D (ER/PR), 5 days, single dose on day 1
Source text: as §1

MDA-MB-468 cells [3] = experiment: Monolayer growth inhibition, crystal violet assay; format: cell-based; conditions: Homo sapiens; MDA-MB-468 (TNBC), 5 days, single dose on day 1
Source text: as §1

JIMT-1 cells [4] = experiment: Monolayer growth inhibition, crystal violet assay; format: cell-based; conditions: Homo sapiens; JIMT-1 (HER2), 5 days, single dose on day 1
Source text: as §1

4T1 cells [5] = experiment: Soft agar growth inhibition assay; format: cell-based; conditions: Mus musculus
All cell lines [6] = experiment: Monolayer growth inhibition, crystal violet assay, range over all cell lines; format: cell-based; conditions: 120 h; range of IC50 over all cell lines of the table; read-out: IC50 Values - Crystal Violet (5 Days), Range, All
Source text: as §1

CD34+ cells = experiment: Colony forming unit hematopoietic stem cell assay; format: cell-based, human; conditions: for IC50: Homo sapiens, Hematopoietic stem cell, CD34+ cells from peripheral blood, read-out: CD34+ (PB) IC50; for Therapeutic Window: ratio IC50 against CD34+ cells and MDA-MB-231 cells (SA)
HCC1143 cells [7] = experiment: Monolayer growth inhibition, crystal violet assay; format: cell-based; conditions: Homo sapiens; HCC1143 (TNBC), 5 days, single dose on day 1
Source text: (§2) In all instances a single dose was given on day 1 of the experiment.

MDA-MB-435 cells [8] = experiment: Monolayer growth inhibition, crystal violet assay; format: cell-based; conditions: Homo sapiens; MDA-MB-435 (Melanoma), 5 days, single dose on day 1
Source text: as §2

SUM149 cells [9] = experiment: Monolayer growth inhibition, crystal violet assay; format: cell-based; conditions: Homo sapiens; SUM149 (TNBC, BRCA Mutant), 5 days, single dose on day 1
Source text: as §2

4T1 cells [10] = experiment: Monolayer growth inhibition, crystal violet assay; format: cell-based; conditions: Mus musculus; 4T1 (TNBC), 5 days, single dose on day 1
Source text: as §2

PC3 cells [11] = experiment: Monolayer growth inhibition, crystal violet assay; format: cell-based; conditions: Homo sapiens, PC-3; PC3 (Prostate), 5 days, single dose on day 1
Source text: as §2

SUM149-PTXR cells [12] = experiment: Monolayer growth inhibition, crystal violet assay; format: cell-based; conditions: Homo sapiens; SUM149-PTXR (TNBC, BRCA Mutant), 5 days, single dose on day 1
Source text: as §2

MDA-MB-231 cells [13] = experiment: Monolayer growth inhibition, crystal violet assay; format: cell-based; conditions: Homo sapiens; MDA-MB-231 (TNBC), 5 days, single dose on day 1
Source text: as §2

MDA-MB-231 cells [14] = experiment: Immuno-oncology gene expression (HLA-DRA, CIITA, CD274 mRNA); format: cell-based, Human; conditions: Compound 16 2 or 4 uM, Compound 18 1, 2, or 4 uM
Source text: A key feature of cancer is low immunogenicity. This can occur by several mechanisms that allow the cells to escape immune recognition. […] HLA-DRA is a member of MHC-II genes and CIITA is the master regulator of MHC II transcription. Thus it was surprising that CIITA, which would be expected to regulate MHC II gene expression, was not altered by RSK inhibition. […] HLA-DRA is important for immune recognition while PD-L1 is involved in immune checkpoints.

T47D cells [15] = experiment: Monolayer growth inhibition, Alamar blue assay; format: cell-based, Human; conditions: Homo sapiens; T47D (ER/PR), 5 days, single dose on day 1
Source text: as §2

SUM149-PTXR cells [16] = experiment: Monolayer growth inhibition, Alamar blue assay; format: cell-based, Human; conditions: Homo sapiens; SUM149-PTXR (TNBC, BRCA Mutant), 5 days, single dose on day 1
Source text: as §2

HCC1143 cells [17] = experiment: Monolayer growth inhibition, Alamar blue assay; format: cell-based; conditions: Homo sapiens; HCC1143 (TNBC), 5 days, single dose on day 1
Source text: as §2

MDA-MB-435 cells [18] = experiment: Monolayer growth inhibition, Alamar blue assay; format: cell-based; conditions: Homo sapiens; MDA-MB-435 (Melanoma), 5 days, single dose on day 1
Source text: as §2

SUM149 cells [19] = experiment: Monolayer growth inhibition, Alamar blue assay; format: cell-based; conditions: Homo sapiens; SUM149 (TNBC, BRCA Mutant), 5 days, single dose on day 1
Source text: as §2

HCC1937 cells [20] = experiment: Monolayer growth inhibition, Alamar blue assay; format: cell-based; conditions: Homo sapiens; HCC1937 (TNBC, BRCA Mutant), 5 days, single dose on day 1
Source text: as §2

4T1 cells [21] = experiment: Monolayer growth inhibition, Alamar blue assay; format: cell-based; conditions: Mus musculus; 4T1 (TNBC), 5 days, single dose on day 1
Source text: as §2

PC3 cells [22] = experiment: Monolayer growth inhibition, Alamar blue assay; format: cell-based; conditions: Homo sapiens, PC-3; PC3 (Prostate), 5 days, single dose on day 1
Source text: as §2

MDA-MB-468 cells [23] = experiment: Monolayer growth inhibition, Alamar blue assay; format: cell-based; conditions: Homo sapiens; MDA-MB-468 (TNBC), 5 days, single dose on day 1
Source text: as §2

JIMT-1 cells [24] = experiment: Monolayer growth inhibition, Alamar blue assay; format: cell-based; conditions: Homo sapiens; JIMT-1 (HER2), 5 days, single dose on day 1
Source text: as §2

MDA-MB-231 cells [25] = experiment: Monolayer growth inhibition, Alamar blue assay; format: cell-based; conditions: Homo sapiens; MDA-MB-231 (TNBC), 5 days, single dose on day 1
Source text: as §2

MDA-MB-468 cells [26] = experiment: Soft agar growth inhibition assay; format: cell-based, Human; conditions: Homo sapiens; MDA-MB-468 (TNBC), 14-22 days
[27] = tested on: phosphorylated Y-box binding protein-1 (YB-1) at serine 102 (P-YB-1S102); experiment: Immunoblotting of cell signalling, loss of P-YB-1 in MDA-MB-231 cells; conditions: MDA-MB-231 cells, 0.01-1 uM, 96 hrs
Protocol: Following desired experimental conditions, breast cancer cell lines grown and treated in 6 well plates or 100 mm culture dishes (Grenier Bio-One) were placed on ice and the supernatant from each well was removed and the cells were washed in cold PBS. Following removal of PBS, cells were exposed to radioimmunoprecipitation assay (RIPA) buffer (50 mM Tris-HCl (pH 8), 150 mM NaCl, 1% NP-40, 0.5% sodium deoxycholate, 0.1% SDS; Fisher Scientific) supplemented with 1% phosphatase inhibitor (Fisher Scientific) and 1% protease inhibitor (Fisher Scientific) for 10 minutes. Samples were transferred to eppendorf tubes, vortexed and then centrifuged at 14 000 rpm for 10 minutes. Supernatants were collected as whole cell lysates.
To begin, the protein content of the lysates was measured using the Bicinchoninic Acid (BCA) Protein Assay Kit (Pierce), which included a protein standard curve generated with bovine serum albumin. Appropriate volumes of samples and loading buffer (50 mM Tris-HCl (pH 6.8), 2% SDS, 10% glycerol, 1% j-mercaptoethanol, 12.5 mM EDTA, 0.02% bromophenol blue) were mixed, ensuring that equal amounts of protein were loaded. For the majority of experiments in this study, 30 μg of protein per well was loaded. Samples were then resolved on SDS-PAGE (polyacrylamide gel electrophoresis) using various percentages of acrylamide gels (8%-12%), depending on the proteins of interest. SDS-PAGE was run in SDS running buffer (25 mM Tris, 192 mM glycine, 0.1% SDS) and then transferred to nitrocellulose membranes (Bio-Rad) in transfer buffer (48 mM Tris, 39 mM glycine, 20% (v/v) methanol) at 100 volts for 90 minutes at room temperature. Immunoblots were then blocked in 5% skim milk in tris-buffered saline with 0.1% Tween-20 (TBS-T; 50 mM Tris-HCl, pH 7.5, 150 mM NaCl, 0.1% (v/v) Tween-20 (Fisher Scientific)) for 1 to 2 hours. Immunoblots were then incubated with selected primary antibodies diluted in TBS-T with 0.1% gelatin (Bio-Rad) and 0.05% sodium azide (Alfa Aesar) overnight. Following washes with TBT-T 4 times for 8 to 10 minutes, immunoblots were incubated with appropriate secondary antibodies conjugated to horseradish peroxidise (Cell Signalling Technology) diluted in TBS-T plus 5% skim milk at a ratio of 1:5000 for 2 hours at room temperature. After an additional round of washes in TBS-T, immunoblots were exposed to combined enhanced chemiluminescence (ECL) reagents (Fisher Scientific) for 1 minute and developed using ChemiDoc MP Imaging System (Bio-Rad). For certain immunoblots, bands of proteins of interest were scanned and band intensity ratios were determined by densitometric analysis (ImageJ). […] Total YB-1 was used as a loading control (1:5000 Abcam). […] To assess whether cells are actively undergoing cell death, the activity of poly ADP ribose polymerase (PARP) (1:1000 CST) was also measured using the immunoblotting method.

MDA-MB-231 cells [28] = experiment: Soft agar growth inhibition assay; format: cell-based; conditions: Homo sapiens
All cell lines [29] = experiment: Monolayer growth inhibition, Alamar blue assay, range over all cell lines; format: cell-based; conditions: 120 h; range of IC50 over all cell lines of the table; read-out: IC50 Values - Alamar Blue (5 Days), Range, All
Source text: as §2

[30] = Solubility assessment, 20 mg/ml solution; format: physicochemical; conditions: hydrochloride salt
Method in brief: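 Compounds from 100 mM DMSO stocks diluted to 20 mg/ml in DMEM with FBS and penicillin/streptomycin, vortexed and checked visually for precipitate. One compound instead diluted to 20 mg/ml in phosphate-buffered saline, solution pH 2.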

[31] = tested on: P-YB-1 in MDA-MB-231 xenografts; experiment: Pharmacodynamics, P-YB-1 signalling in MDA-MB-231 xenograft tumors (immunoblotting); conditions: 100 mg/kg BID PO for three days
Protocol: Following desired experimental conditions, breast cancer cell lines grown and treated in 6 well plates or 100 mm culture dishes (Grenier Bio-One) were placed on ice and the supernatant from each well was removed and the cells were washed in cold PBS. Following removal of PBS, cells were exposed to radioimmunoprecipitation assay (RIPA) buffer (50 mM Tris-HCl (pH 8), 150 mM NaCl, 1% NP-40, 0.5% sodium deoxycholate, 0.1% SDS; Fisher Scientific) supplemented with 1% phosphatase inhibitor (Fisher Scientific) and 1% protease inhibitor (Fisher Scientific) for 10 minutes. Samples were transferred to eppendorf tubes, vortexed and then centrifuged at 14 000 rpm for 10 minutes. Supernatants were collected as whole cell lysates. For mouse tumour tissues, each sample was place in a 35 mm culture dish with complete RIPA lysis buffer. […]
To begin, the protein content of the lysates was measured using the Bicinchoninic Acid (BCA) Protein Assay Kit (Pierce), which included a protein standard curve generated with bovine serum albumin. […] For certain immunoblots, bands of proteins of interest were scanned and band intensity ratios were determined by densitometric analysis (ImageJ). […] To assess whether cells are actively undergoing cell death, the activity of poly ADP ribose polymerase (PARP) (1:1000 CST) was also measured using the immunoblotting method.
Cell signalling was evaluated by immunoblotting. […]

[32] = MDA-MB-231, growth in soft agar (SA), read-out: MDA-MB-231 IC50 (SA)
[33] = MDA-MB-231 (TNBC), 14-22 days, read-out: IC50 Values - Soft Agar (14-22 Days)

C[C@@H]1CNC(=O)c2cc3ccc(C(=O)Nc4cnn(Cc5cccc(N)c5)c4)nc3n21 [Compound 16, (R)—N-(1-(3-aminobenzyl)-1H-pyrazol-4-yl)-9-methyl-6-oxo-6,7,8,9-tetrahydropyrido[3′,2′:4,5]pyrrolo[1,2-a]pyrazine-2-carboxamide]
IC50 (HCC1937 cells [1]): 12 ± 5.3 µM
IC50 (T47D cells [2]): 3.8 ± 0.7 µM
IC50 (MDA-MB-468 cells [3]): 1.9 ± 0.3 µM
IC50 (JIMT-1 cells [4]): 13.3 ± 2.4 µM
IC50 (4T1 cells [5]; 240 h, 4T1, 10 days, read-out: IC50 Values, 10 Days, Soft Agar): 3.3 µM
IC50 (4T1 cells [5]; 4T1 (TNBC), 14-22 days, read-out: IC50 Values - Soft Agar (14-22 Days)): 3.5 ± 0.3 µM
IC50 (All cell lines [6]): 1.2 to 13.3 µM
IC50 (CD34+ cells): > 20 µM
Therapeutic Window (CD34+ cells): >100X
IC50 (HCC1143 cells [7]): 5 ± 1.1 µM
IC50 (MDA-MB-435 cells [8]): 1.2 ± 0.6 µM
IC50 (SUM149 cells [9]): 2.8 ± 0.9 µM
IC50 (4T1 cells [10]): 4.5 ± 0.8 µM
IC50 (PC3 cells [11]): 3.7 ± 1.3 µM
IC50 (SUM149-PTXR cells [12]): 3.5 ± 1.2 µM
IC50 (MDA-MB-231 cells [13]): 2.7 ± 1.3 µM
CD274 (gene encoding PD-L1) levels (MDA-MB-231 cells [14]): reduced levels of CD274
HLA-DRA mRNA (MDA-MB-231 cells [14]): elevated levels of HLA-DRA mRNA
mRNA expression of CIITA (MDA-MB-231 cells [14]): little effect
IC50 (T47D cells [15]): 4.7 ± 1.7 µM
IC50 (SUM149-PTXR cells [16]): 2.5 ± 0.4 µM
IC50 (HCC1143 cells [17]): 7 ± 3 µM
IC50 (MDA-MB-435 cells [18]): 0.9 ± 0.5 µM
IC50 (SUM149 cells [19]): 3.4 ± 1.8 µM
IC50 (HCC1937 cells [20]): 17.4 ± 3 µM
IC50 (4T1 cells [21]): 5.4 ± 0.9 µM
IC50 (PC3 cells [22]): 6.6 ± 2.3 µM
IC50 (MDA-MB-468 cells [23]): 2.7 ± 0.5 µM
IC50 (JIMT-1 cells [24]): 16.3 ± 1 µM
IC50 (MDA-MB-231 cells [25]): 8.7 ± 1.8 µM
IC50 (MDA-MB-468 cells [26]): 1.1 ± 0.3 µM
Loss of P-YB-1 [27]: dose dependent loss of P-YB-1
IC50 (MDA-MB-231 cells [28]; [32]): 0.2 µM
IC50 (MDA-MB-231 cells [28]; [33]): 0.2 ± 0.1 µM
IC50 (All cell lines [29]): 0.9 to 17.4 µM

C[C@@H]1CNC(=O)c2cc3ccc(C(=O)Nc4cnn(Cc5ccc(N)cc5)c4)nc3n21 [Compound 25, (R)—N-(1-(4-aminobenzyl)-1H-pyrazol-4-yl)-9-methyl-6-oxo-6,7,8,9-tetrahydropyrido[3′,2′:4,5]pyrrolo[1,2-a]pyrazine-2-carboxamide hydrochloride salt]
IC50 (HCC1937 cells [1]): 8.4 ± 1.9 µM
IC50 (T47D cells [2]): 3.1 ± 0.1 µM
IC50 (MDA-MB-468 cells [3]): 2 ± 0.4 µM
IC50 (JIMT-1 cells [4]): 15.2 ± 2.6 µM
IC50 (CD34+ cells): > 20 µM
Therapeutic Window (CD34+ cells; hydrochloride salt): >100X
Solubility, 20 mg/ml Solution ([30]; 100 mM in DMSO diluted in DMEM growth media to 20 mg/ml): Soluble; also recorded: superior solubility
pH of 20 mg/ml solution ([30]; DMSO stock diluted in DMEM, pH test strips): 2
IC50 (T47D cells [15]): 8.9 ± 0.8 µM
IC50 (SUM149-PTXR cells [16]): 5.2 ± 4.2 µM
IC50 (HCC1143 cells [17]): 5.1 ± 0.3 µM
IC50 (MDA-MB-435 cells [18]): 0.9 ± 0.1 µM
IC50 (SUM149 cells [19]): 10.4 ± 3.5 µM
IC50 (HCC1937 cells [20]): 13.7 ± 3.8 µM
IC50 (PC3 cells [22]): 8.5 ± 0.8 µM
IC50 (JIMT-1 cells [24]): 19.9 ± 6.5 µM
IC50 (MDA-MB-231 cells [28]; [32]): 0.2 µM
IC50 (MDA-MB-231 cells [28]; [33]): 0.2 ± 0.1 µM
Tumors with reduced cell signaling through loss of P-YB-1 [31]: 3/3

From patent US10081632B2, “Substituted tetrahydropyrido[3′,2′:4,5]pyrrolo[1,2-α]pyrazine-2-carboxamides as RSK inhibitors” (Phoenix Molecular Designs, priority 2016, dated 2018)
